The values that follow come from patent publication US4977141A, “Peptidyl α-aminoacyl aminodiol carbamates as anti-hypertensive agents” (G. D. Searle & Co., priority 1987, dated 1990).

One assay deals with T1, human renin (Homo sapiens, UniProt P00797).
T1 construct: purchased National Institute for Biological Standards, London
T1 sequence (P00797 67-406): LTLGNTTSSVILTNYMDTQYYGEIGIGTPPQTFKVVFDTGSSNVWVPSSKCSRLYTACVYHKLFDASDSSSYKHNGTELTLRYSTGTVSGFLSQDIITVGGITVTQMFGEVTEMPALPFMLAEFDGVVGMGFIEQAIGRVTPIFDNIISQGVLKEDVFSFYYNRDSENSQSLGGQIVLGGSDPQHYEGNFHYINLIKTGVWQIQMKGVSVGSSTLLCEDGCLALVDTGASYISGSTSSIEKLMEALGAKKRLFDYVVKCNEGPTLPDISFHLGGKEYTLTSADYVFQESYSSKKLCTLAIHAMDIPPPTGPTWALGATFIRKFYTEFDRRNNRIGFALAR
As to the kind of experiment: human renin inhibition in vitro assay. It counts as biochemical. Conditions: pH 7.4, 37° C., two hours, human plasma substrate. How it is done:
Compounds of Formula I were evaluated as inhibitors of human renin in an in vitro assay, as follows: This human renin inhibition test has been previously described in detail [Papaioannou, et. al., Clinical and Experimental Hypertension, A7(9), 1243-1257 (1985)]. Human renin was obtained from the National Institute for Biological Standards, London. In a total volume of 0.25 mL 100 mM Tris-acetate buffer at PH 7.4, 25×10^-6 Goldblatt units of renin, 0.05 mL of plasma from human volunteers taking oral contraceptives, 6.0 mM sodium EDTA, 2.4 mM phenylmethyl sulfonyl fluoride, 1.5 mM 8-hydroxyquinoline, 0.4 mg/mL BSA, and 0.024 mg/mL neomycin sulfate were incubated for two hours at 37° C. in the presence or absence of renin inhibitors. The produced angiotensin I was determined by radioimmunoassay (New England Nuclear kit). Dipeptide glycols to be assayed were solubilized in either ethyl alcohol or DMSO and diluted with 100 mM Tris-acetate buffer at pH 7.4 to the appropriate concentration. The final concentration of organic solvent in the reaction mixture was less than 1%. Control incubations at 37° C. were used to correct for effects of organic solvent on renin activity.

A further assay deals with Plasma Renin Activity. As to the kind of experiment: Plasma Renin Activity of Sodium-Depleted Marmoset, oral activity. Conditions: 20 mg/kg IG. It counts as in vivo, Common marmosets (Callithrix jacchus). As for the experimental part:
The oral activity of compounds of Formula I was determined in vivo in Marmoset monkeys in accordance with the following procedure: Common marmosets (Callithrix jacchus, Charles River) were placed on a modified high protein low sodium diet (Purina, St. Louis, Mo.) for 1 to 2 weeks. On the day of the test an animal was anesthetized with isoflurane and cannulated in the femoral artery and vein for blood pressure monitoring, intravenous saralasin infusion and blood sampling. After allowing the animal to recover from surgery for 2 hr, saralasin was infused at 1 microgram/min for 15 minutes to confirm that the animal's blood pressure was dependent on angiotensin II levels. The marmoset was allowed to stabilize for 30 min after the saralasin infusion. The test compound was administered orally and blood pressure was monitored for 2 hr. Blood samples were taken in K-EDTA for plasma renin activity before, 30 min, and 1 hr after compound administration.

The next assay has as its target T2, hog renin (Sus scrofa, UniProt A0A287APG1).
T2 construct: purchased Sigma Chemical Co
As to the kind of experiment: hog renin inhibition assay. It counts as biochemical. Conditions: pH 7.4, 37° C., one hour, synthetic tetradecapeptide substrate. How it is done: The hog renin inhibition assay was conducted in a manner similar to the human resin assay, with the following modification: Hog renin was purchased from Sigma Chemical Co. and the synthetic tetradecapeptide substrate was obtained from peninsula Labs Inc. In a final volume of 0.25 mL 100 mM Tris-acetate buffer at pH 7.4, 0.125 m units hog renin, 20 micromolar tetradecapeptide, 6 mM disodium EDTA, 3.2 mM phenylmethyl sulfonyl fluoride, 3 mM 8-hydroxyquinoline, 1.2 mg/mL BSA and 0.024 mg/mL neomycin sulfate were incubated for one hour at 37° C. in the presence or absence of renin inhibitors. The amount of angiotensin I produced was determined as for the human renin inhibition assay.

For assay [1], the system named is plasma renin activity (PRA). As to the kind of experiment: plasma renin activity (PRA) reduction in Rhesus monkeys, intravenous. The settings on record: Macaca mulatta, 0.25 h, furosemide pre-treated Rhesus monkeys, dose reducing PRA to 50% of pretreatment control, read-out: Rhesus (in vivo) PRA Reduction ED50. How it is done: The effect of inhibitor on plasma renin activity (PRA) in Rhesus monkeys was determined as follows: Rhesus monkeys were pre-treated with furosemide (0.2 mg/kg; i.m.) followed by another equal does 6 hours later. Then, 24 hours after the first treatment, the animals were chaired and blood samples collected for pre-treatment controls; immediately thereafter dosing with drug was started. The compounds were administered intravenously every 30 min and blood samples were collected 15 min after each administration. PRA was determined by the method of Sealey and Laragh Cardiovascular Med. 2, 1079-1092 (1977), and the concentration of angiotensin I produced was determined by radioimmunoassay.

Assay [2] deals with aspartyl proteases such as pepsin, cathepsin D and renin. The settings on record: cited from earlier work.
Another assay deals with blood pressure. Conditions: after the injection of hog renin into nephrectomized rats; cited from earlier work.

pIC50: −log10 of the molar value. Square brackets hold non-standard residues; d marks the D form. Peptide text beside a SMILES is read from it. * marks the point of attachment. Sta = CC(C)C[C@H](N)[C@@H](O)CC(=O)O; Isovaleryl = CC(C)CC(=O)*

T2 sequence (A0A287APG1 24-407): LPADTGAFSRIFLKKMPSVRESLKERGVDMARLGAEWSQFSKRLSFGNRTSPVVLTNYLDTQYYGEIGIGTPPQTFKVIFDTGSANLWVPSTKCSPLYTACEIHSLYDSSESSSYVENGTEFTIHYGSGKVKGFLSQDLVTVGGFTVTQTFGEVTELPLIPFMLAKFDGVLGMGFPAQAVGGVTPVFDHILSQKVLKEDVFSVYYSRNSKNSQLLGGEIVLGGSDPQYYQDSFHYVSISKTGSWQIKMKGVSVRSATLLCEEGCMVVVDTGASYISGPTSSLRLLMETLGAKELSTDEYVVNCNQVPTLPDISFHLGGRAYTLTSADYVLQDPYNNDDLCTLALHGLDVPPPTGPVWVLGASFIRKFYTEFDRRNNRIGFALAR

As to `CC(C)C[C@H](NC(=O)[C@H](Cc1ccccc1)OC(=O)N1CCOCC1)C(=O)N[C@@H](CC1CCCCC1)[C@@H](O)[C@@H](O)CC(C)C` [Example 6, O-(N-morpholinocarbonyl)-3-L-phenyllactyl-L-leucinamide of (2S,3R,4S)-2-amino-1-cyclohexyl-3,4-dihydroxy-6-methylheptane], the pIC50 at human renin was 7.15; at hog renin, 6.80. Also, the “Plasma Renin Activity” value in the assay on Plasma Renin Activity (30 min, Animal No. 206) was 2.2 ng AI/ml/hr; in the assay on Plasma Renin Activity (30 min, Animal No. 207), 0.2 ng AI/ml/hr; with Plasma Renin Activity (30 min, Animal No. 208), 1.0 ng AI/ml/hr; in the assay with Plasma Renin Activity (60 min, Animal No. 206), 0.6 ng AI/ml/hr; with Plasma Renin Activity (60 min, Animal No. 207), 0.9 ng AI/ml/hr; with Plasma Renin Activity (60 min, Animal No. 208), 2.0 ng AI/ml/hr. Further, the “Plasma Renin Activity” value in the assay with Plasma Renin Activity (Pretreatment, Animal No. 206) was determined as 16.3 ng AI/ml/hr; in the assay with Plasma Renin Activity (Pretreatment, Animal No. 207) it was 16.4 ng AI/ml/hr; with Plasma Renin Activity (Pretreatment, Animal No. 208), 15.7 ng AI/ml/hr. In addition, the ED50 in assay [1] turned out to be 0.012 mg/kg.
With `CC(C)C[C@H](NC(=O)[C@H](Cc1ccccc1)OC(=O)N1CCOCC1)C(=O)N[C@@H](CC1CCCCC1)[C@@H](O)[C@H](C)O` [Example 9, O-(N-morpholinocarbonyl)-3-L-phenyllactyl-L-leucinamide of (2S,3R,4S)-2-amino-1-cyclohexyl-3,4-dihydroxypentane], the negative-log IC50 (pIC50) was 7.00 at human renin and 5.18 against hog renin.
Regarding `CC(C)C[C@H](NC(=O)[C@H](Cc1ccccc1)OC(=O)N1CCOCC1)C(=O)N[C@@H](CC1CCCCC1)[C@@H](O)CO` [Example 11, O-(N-morpholinocarbonyl)-3-L-phenyllactyl-L-leucinamide of (2S, 3R)-2-amino-1-cyclohexyl-3,4-dihydroxybutane], the values for the pIC50 against human renin and against hog renin were 6.31 and 5.14, respectively. The “Plasma Renin Activity” value with Plasma Renin Activity (30 min, Animal No. 205) was found to be 0.6 ng AI/ml/hr; in the assay with Plasma Renin Activity (30 min, Animal No. 209) it was 1.1 ng AI/ml/hr; in the assay with Plasma Renin Activity (30 min, Animal No. 221), 48.5 ng AI/ml/hr; in the assay with Plasma Renin Activity (60 min, Animal No. 205), 4.5 ng AI/ml/hr; with Plasma Renin Activity (60 min, Animal No. 209), 0.0 ng AI/ml/hr; in the assay with Plasma Renin Activity (60 min, Animal No. 221), 24.9 ng AI/ml/hr. Besides, the “Plasma Renin Activity” value in the assay on Plasma Renin Activity (Pretreatment, Animal No. 205) stood at 17.5 ng AI/ml/hr; in the assay with Plasma Renin Activity (Pretreatment, Animal No. 209), 39.3 ng AI/ml/hr; with Plasma Renin Activity (Pretreatment, Animal No. 221), 37.6 ng AI/ml/hr. The 50% effective dose (ED50) in assay [1] worked out at 1.6 mg/kg.
Turning to `CC(C)CC(=O)N[C@H](C(=O)N[C@H](C(=O)N[C@@H](CC(C)C)[C@@H](O)CC(=O)N[C@@H](C)C(=O)N[C@@H](CC(C)C)[C@@H](O)CC(=O)O)C(C)C)C(C)C` [pepstatin] (Isovaleryl-VV[Sta]A[Sta]-OH), the “inhibition of aspartyl proteases” value in assay [2] is given as “inhibitor of aspartyl proteases”. Also, the “blood pressure reduction in vivo” value with blood pressure is “reduce blood pressure in vivo”.

In general, pIC50 refers to the negative decadic logarithm of the IC50, by convention in mol/L. As usually defined, the ED50 is the midpoint of the dose-response relation.
